Drawing on PubChem BioAssay AID463136 (University of Pittsburgh Molecular Library Screening Center, 2010), this text covers inhibition and IC50 for 34 compounds.

Test [1] is described as follows: dynein cargo transport inhibitors, potency, dose response, imaging, high-content imaging (AID 463136).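 Also: mouse mammary adenocarcinoma 3617.4 cells expressing GFP-tagged rat glucocorticoid receptor.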 To be noted: HCS imaging, dynein-mediated cargo transport inhibition; inhibition at max concentration; at 50 µM; stronger effect = higher value.
Test [2] concerns HCS imaging, dynein-mediated cargo transport inhibition. The test is described as above.

As usually defined, the inhibition is the change of the read-out against control, counted positive when it falls. A word on the IC50: it is the concentration at which inhibition is half-maximal.

Structures are written as SMILES. Records with an inconclusive call do not appear. Active and inactive are the calls of the source. No rule for the calls is given here. Bounds are passed on as bounds.

With `Cc1cccc2cc3c(N)c(C(=O)N4CCCc5ccccc54)sc3nc12`, in test [1], the inhibition was determined as 116%. The IC50 in test [2] was 35.2 µM.

Regarding `COc1ccc(CN(CCC(c2ccccc2)c2ccc(OC(C)C)cc2)C(=O)CCl)cc1OC` (stereo not drawn), the inhibition in test [1] was found to be 34.9%. In addition, in test [2], the IC50 was > 50 µM (inactive).

For `COC(=O)CS(=O)(=O)c1nnc([C@H](Cc2ccccc2)NC(=O)OC(C)(C)C)o1`, the inhibition in test [1] amounted to 34.1%. In addition, the IC50 in test [2] is > 50 µM (inactive).

On to `O=C(NC1CCCC1)C(c1ccc(Cl)cc1)N(Cc1ccc(F)cc1)C(=O)CCl` (stereo not drawn), for which the inhibition in test [1] was determined as 75.1%. Further, the IC50 in test [2] was 34.8 µM.

On to `CNCc1ccccc1Sc1cc(O)ccc1O`, for which, in test [1], the inhibition came out at 74.1%. Also, the IC50 in test [2] was 38.5 µM.

Regarding `C#CC(=O)N(c1cccc(OC)c1)C(C(=O)NC1CCCC1)c1cccs1` (stereo not drawn), the inhibition in test [1] amounted to 16.5%. In addition, in test [2], the IC50 is > 50 µM (inactive).

`O=c1c(Cl)c(Cl)cnn1-c1ccccc1`: the inhibition in test [1] was 81.7%. The IC50 in test [2] was 9.57 µM.

Consider `CCSc1nc2ccccc2n1C(=O)/C=C\c1ccc(OC)c(OC)c1`, for which the inhibition in test [1] was determined as 7.37%. Also, the IC50 in test [2] is > 50 µM (inactive).

Regarding `COc1ccccc1-[n+]1c(C)cc(/C=C2\Sc3ccccc3N2C)cc1C`, the inhibition in test [1] amounted to 92%. Also, the IC50 in test [2] is 9.31 µM.

For the compound `COC(=O)c1cc(NC(=O)c2ccccc2)c(=O)oc1/C=C/Nc1ccc(Oc2ccccc2)cc1`, the inhibition in test [1] was 102%. Also, the concentration for half-maximal inhibition (IC50) in test [2] was 1.16 µM.

For `CC(=O)OCCCNc1cc(Sc2ccc(Cl)cc2)c2nonc2c1[N+](=O)[O-]`, in test [1], the inhibition was determined as 60.4%. Further, the IC50 in test [2] is 41 µM.

Consider `O=C(/C=C/c1ccccc1)/C=C/c1ccccc1`, for which, in test [1], the inhibition worked out at 45.9%. The IC50 in test [2] is > 50 µM (inactive).

Consider `Cn1c(=O)c(Nc2ccc(Cl)cc2)c2c3c(cccc31)C(=O)c1ccccc1-2`, for which, in test [1], the inhibition turned out to be 97.8%. The IC50 in test [2] was 31 µM.

`CCN(CC)c1ccc(/C=C2/SC(=O)N(C(C)C)C2=O)o1`: the inhibition in test [1] was determined as 39.9%. The IC50 in test [2] is > 50 µM (inactive).

Regarding `Cc1ccc(N(C(=O)CCl)C(C(=O)NC2CCCCC2)c2cccnc2)cc1C` (stereo not drawn), in test [1], the inhibition stood at 86.1%. For the same compound, the IC50 in test [2] was 4.62 µM.

Regarding `O=C(Cn1ncc(Cl)c(Cl)c1=O)N1CCN(S(=O)(=O)c2ccc3ccccc3c2)CC1`, the inhibition in test [1] is 65.1%. Also, in test [2], the IC50 is 24.1 µM.

With `COc1ccc(OC)c(CCNC(=O)Cn2sc3nc(C)cc(C)c3c2=O)c1`, the inhibition in test [1] is 93.6%. The IC50 in test [2] is 29.1 µM.

For `Cc1ccc(N2C(=O)NC(=O)/C(=C\C=C\c3ccco3)C2=O)cc1`, in test [1], the inhibition amounted to 108%. For the same compound, the IC50 in test [2] was 27.7 µM.

For the compound `Cc1nnc(NC(=O)c2sc3nc(-c4cccs4)cc(C(F)(F)F)c3c2N)s1`, the inhibition in test [1] turned out to be 154%. Besides, the IC50 in test [2] was 2.21 µM.

In the case of `Cn1c(=O)c([N+](=O)[O-])c(Oc2ccccc2)c2ccccc21`, the inhibition in test [1] came to 15.3%. Further, in test [2], the IC50 was > 50 µM (inactive).

For the compound `CCCCN(C)C1=CC2=CC(=C(C#N)C#N)CCC2CC1` (stereo not drawn), the inhibition in test [1] is 99.2%. The IC50 in test [2] is 13.6 µM.

With `O=C1/C(=C/c2ccccc2[N+](=O)[O-])COc2ccccc21`, the inhibition in test [1] turned out to be 39.6%. Also, in test [2], the IC50 is > 50 µM (inactive).

As to `Cc1nc2c(=O)n(C)c(=O)n(C)c2nc1Cl`, the inhibition in test [1] turned out to be 62.9%. Besides, in test [2], the IC50 is 9.82 µM.

For `CC(C)(C)C1C/C(=C/c2ccco2)C(=O)/C(=C/c2ccco2)C1` (stereo not drawn), in test [1], the inhibition was found to be 101%. The IC50 in test [2] is 24.9 µM.

As for `CCNc1ccc(Br)cc(C(=O)/C=C/c2ccc(Cl)cc2Cl)c1=O`, in test [1], the inhibition was found to be 99.2%. Also, in test [2], the IC50 was 32.9 µM.

As for `CCOC(=O)COc1ccc(/C=C/[N+](=O)[O-])c(OCC(=O)OCC)c1`, the inhibition in test [1] stood at 82.8%. The IC50 in test [2] was 11.4 µM.

With `O=c1oc2c3c4c(cc2c(C(F)(F)F)c1CCN1CCOCC1)CCCN4CCC3`, in test [1], the inhibition is 99.3%. The 50% inhibitory concentration (IC50) in test [2] is 36.4 µM.

In the case of `N#CC1=C(N)OC2=C(CC/C2=C\c2ccccc2)C1c1ccccc1` (stereo not drawn), the inhibition in test [1] amounted to 75.8%. Moreover, the IC50 in test [2] was 11.1 µM.

Take `O=C(c1ccccc1)c1cc(Cl)ccc1N1C(=O)C=CC1=O`: in test [1], the inhibition stood at 12%. Also, in test [2], the IC50 is > 50 µM (inactive).

Take `CCOC(=O)C1=C(SCC)c2cc3c(n2C1=O)CCCC3`: in test [1], the inhibition was 37.7%. For the same compound, the IC50 in test [2] was > 50 µM (inactive).

For `O=c1[nH]sc2ccccc12`, the inhibition in test [1] worked out at 91%. Moreover, in test [2], the IC50 was 10.9 µM.

In the case of `O=C(CCl)N(Cc1cccc([N+](=O)[O-])c1)c1cccc(Cl)c1`, in test [1], the inhibition was 75%. Also, the IC50 in test [2] is 12.2 µM.

Regarding `CCN1/C(=C/C=C/c2oc3ccc4ccccc4c3[n+]2CC)Oc2ccc3ccccc3c21`, the inhibition in test [1] stood at 96.7%. For the same compound, in test [2], the IC50 is 2.51 µM.

`CC(C)(C)C(=O)Cn1ncc(Cl)c(Cl)c1=O`: in test [1], the inhibition was found to be 90.6%. Further, the IC50 in test [2] is 7.93 µM.
